Measurements: US4476120A, “Thiolic derivatives of erythromycin having therapeutic activity, and pharmaceutical compositions containing them” (Sigma Tau Indistrie Farmaceutiche Riunites, p.A, priority 1982, dated 1984)
Values after ≈ are worked out from the molar mass of the structure shown.

Experiments:
Staph. albus SS 03 = format: cell-based; details: Brain Heart Infusion, estolate and RV11-RV15 previously hydrolized, unit assumed
Staph. albus SS 04 = format: cell-based; details: Brain Heart Infusion, estolate and RV11-RV15 previously hydrolized, unit assumed
Staph. aureus SS 08 = format: cell-based; details: Brain Heart Infusion, estolate and RV11-RV15 previously hydrolized, unit assumed
Staph. aureus SS 09 = format: cell-based; details: Brain Heart Infusion, estolate and RV11-RV15 previously hydrolized, unit assumed
Staph. aureus SS 10 = format: cell-based; details: Brain Heart Infusion, estolate and RV11-RV15 previously hydrolized, unit assumed
[1] = system: Strept. haemolyticus SS 17; format: cell-based; details: Brain Heart Infusion, estolate and RV11-RV15 previously hydrolized, unit assumed
[2] = system: Strept. haemolyticus SS 18; format: cell-based; details: Brain Heart Infusion, estolate and RV11-RV15 previously hydrolized, unit assumed
Strept. faecalis SS 19 = format: cell-based; details: Brain Heart Infusion, estolate and RV11-RV15 previously hydrolized, unit assumed
S. lutea ATCC 9341 = format: cell-based; details: Brain Heart Infusion, estolate and RV11-RV15 previously hydrolized, unit assumed
B. subtilis SS 127 = format: cell-based; details: Brain Heart Infusion, estolate and RV11-RV15 previously hydrolized, unit assumed
B. cereus ATCC 11778 = format: cell-based; details: Brain Heart Infusion, estolate and RV11-RV15 previously hydrolized, unit assumed
B. anthranis SS 08 = format: cell-based; details: Brain Heart Infusion, estolate and RV11-RV15 previously hydrolized, unit assumed
Br. melitensis SS 19 = format: cell-based; details: unit assumed
Br. abortus SS 7 = format: cell-based; details: Brain Heart Infusion, estolate and RV11-RV15 previously hydrolized, unit assumed
Citrobacter SS 05 = format: cell-based; details: Brain Heart Infusion, estolate and RV11-RV15 previously hydrolized, unit assumed
Citrobacter SS 09 = format: cell-based; details: Brain Heart Infusion, estolate and RV11-RV15 previously hydrolized, unit assumed
S. infantis SS 08 = format: cell-based; details: Brain Heart Infusion, estolate and RV11-RV15 previously hydrolized, unit assumed
S. heidelberg SS 18 = format: cell-based; details: Brain Heart Infusion, estolate and RV11-RV15 previously hydrolized, unit assumed
E. cloacae SS 07 = format: cell-based; details: Brain Heart Infusion, estolate and RV11-RV15 previously hydrolized, unit assumed
E. aerogenes SS 011 = format: cell-based; details: Brain Heart Infusion, estolate and RV11-RV15 previously hydrolized, unit assumed
Ps. aeruginosa SS 10 = format: cell-based; details: Brain Heart Infusion, estolate and RV11-RV15 previously hydrolized, unit assumed
E. coli SS 04 = format: cell-based; details: Brain Heart Infusion, estolate and RV11-RV15 previously hydrolized, unit assumed
E. coli SS 05 = format: cell-based; details: Brain Heart Infusion, estolate and RV11-RV15 previously hydrolized, unit assumed
E. coli SS 06 = format: cell-based; details: Brain Heart Infusion, estolate and RV11-RV15 previously hydrolized, unit assumed
E. coli SS 07 = format: cell-based; details: Brain Heart Infusion, estolate and RV11-RV15 previously hydrolized, unit assumed
Pr. mirabilis SS 09 = format: cell-based; details: Brain Heart Infusion, estolate and RV11-RV15 previously hydrolized, unit assumed
Pr. vulgaris SS 10 = format: cell-based; details: Brain Heart Infusion, estolate and RV11-RV15 previously hydrolized, unit assumed
Kl. aerogenes SS 71 = format: cell-based; details: Brain Heart Infusion, estolate and RV11-RV15 previously hydrolized, unit assumed
H. tubercolosis SS 03 = format: cell-based; details: Brain Heart Infusion, estolate and RV11-RV15 previously hydrolized, unit assumed
Source text: (§1) In the following table I the MIC/ml values are indicated corresponding to the lowest concentration capable of inducing a complete inhibition of the bacterial development.

Kl. pneumoniae SS 04 = format: cell-based; details: Brain Heart Infusion, estolate and RV11-RV15 previously hydrolized, unit assumed
Source text: as §1

Sr. marcescens SS 03 = format: cell-based; details: Brain Heart Infusion, estolate and RV11-RV15 previously hydrolized, unit assumed
C. diphtheriae SS 19 = format: cell-based; details: Brain Heart Infusion, estolate and RV11-RV15 previously hydrolized, unit assumed
D. pneumoniae SS 23 [3] = format: cell-based; details: Brain Heart Infusion, estolate and RV11-RV15 previously hydrolized, unit assumed
N. gonorreae SS 27 = format: cell-based; details: Brain Heart Infusion, estolate and RV11-RV15 previously hydrolized, unit assumed
N. meningitidis SS 04 = format: cell-based; details: Brain Heart Infusion, estolate and RV11-RV15 previously hydrolized, unit assumed
H. influentiae SS 02 = format: cell-based; details: Brain Heart Infusion, estolate and RV11-RV15 previously hydrolized, unit assumed
H. pertussis SS 03 = format: cell-based; details: Brain Heart Infusion, estolate and RV11-RV15 previously hydrolized, unit assumed
C. albicans SS 04 = format: cell-based; details: Brain Heart Infusion, estolate and RV11-RV15 previously hydrolized, unit assumed
Cl. tetani SS 17 = format: cell-based; details: Brain Heart Infusion, estolate and RV11-RV15 previously hydrolized, unit assumed
Acute toxicity = format: in vivo; details: mouse, in vivo, po
Protocol: The acute toxicity was assessed in Swiss white mice by oral and intravenous route. The LD50 values have been calculated by the methods of Probits, starting from the mortality recorded 10 days after the treatment.

Staph. aureus SS 07 = experiment: Experimental infection induced by Staph. aureus SS 07; format: in vivo, Swiss white mice; details: os; Staph. aureus SS 07; mg/kg of erythromycin; survival after 7 days; 10080 min
Procedure, shortened: (§2)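 Swiss mice of 20 g infected parenterally with lethal amounts of Staph. aureus SS 07 or D. pneumoniae SS 23. Antibiotics were given at infection and again 6 and 24 h later. ED50 was derived from survival at 7 days.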

D. pneumoniae SS 23 [4] = experiment: Experimental infection induced by D. pneumoniae SS 23; format: in vivo, Swiss white mice; details: os; D. pneumoniae SS 23; mg/kg of erythromycin; survival after 7 days; 10080 min
Procedure, shortened: as §2

[5] = Histological examination of bronchi after SO2 inhalation; format: in vivo, Sprague Dawley male rats; details: oral, 500 mg/kg; for histological appearance of non obstructed bronchi: free non obstructed

Structure (SMILES): CCC(=O)O[C@H]1[C@H](O[C@@H]2[C@@H](C)[C@H](O[C@H]3C[C@@](C)(OC)[C@@H](O)[C@H](C)O3)[C@@H](C)C(=O)O[C@H](CC)[C@@](C)(O)[C@H](O)[C@@H](C)C(=O)[C@H](C)C[C@@]2(C)O)O[C@H](C)C[C@@H]1N(C)C [RV15, erythromycin monopropionate N-acetylcysteinate]
- MIC (Staph. albus SS 03): 0.25 mg/L (≈ 0.316 µM)
- MIC (Staph. albus SS 04): 0.05 mg/L (≈ 0.0633 µM)
- MIC (Staph. aureus SS 08): 0.025 mg/L (≈ 0.0316 µM)
- MIC (Staph. aureus SS 09): 0.05 mg/L (≈ 0.0633 µM)
- MIC (Staph. aureus SS 10): 0.05 mg/L (≈ 0.0633 µM)
- MIC [1]: 1.5 mg/L (≈ 1.9 µM)
- MIC [2]: 3 mg/L (≈ 3.8 µM)
- MIC (Strept. faecalis SS 19): 0.05 mg/L (≈ 0.0633 µM)
- MIC (S. lutea ATCC 9341): 0.01 mg/L (≈ 0.0127 µM)
- MIC (B. subtilis SS 127): 0.025 mg/L (≈ 0.0316 µM)
- MIC (B. cereus ATCC 11778): 0.4 mg/L (≈ 0.506 µM)
- MIC (B. anthranis SS 08): 0.4 mg/L (≈ 0.506 µM)
- MIC (Br. melitensis SS 19): 3 mg/L (≈ 3.8 µM)
- MIC (Br. abortus SS 7): 6 mg/L (≈ 7.59 µM)
- MIC (Citrobacter SS 05): > 200 mg/L
- MIC (Citrobacter SS 09): > 200 mg/L
- MIC (S. infantis SS 08): 100 mg/L (≈ 127 µM)
- MIC (S. heidelberg SS 18): 100 mg/L (≈ 127 µM)
- MIC (E. cloacae SS 07): > 200 mg/L
- MIC (E. aerogenes SS 011): 50 mg/L (≈ 63.3 µM)
- MIC (Ps. aeruginosa SS 10): 100 mg/L (≈ 127 µM)
- MIC (E. coli SS 04): 50 mg/L (≈ 63.3 µM)
- MIC (E. coli SS 05): 100 mg/L (≈ 127 µM)
- MIC (E. coli SS 06): 25 mg/L (≈ 31.6 µM)
- MIC (E. coli SS 07): 50 mg/L (≈ 63.3 µM)
- MIC (Pr. mirabilis SS 09): > 200 mg/L
- MIC (Pr. vulgaris SS 10): > 200 mg/L
- MIC (Kl. aerogenes SS 71): 100 mg/L (≈ 127 µM)
- MIC (H. tubercolosis SS 03): 50 mg/L (≈ 63.3 µM)
- MIC (Kl. pneumoniae SS 04): 100 mg/L (≈ 127 µM)
- MIC (Sr. marcescens SS 03): 200 mg/L (≈ 253 µM)
- MIC (C. diphtheriae SS 19): 0.02 mg/L (≈ 0.0253 µM)
- MIC (D. pneumoniae SS 23 [3]): 0.05 mg/L (≈ 0.0633 µM)
- MIC (N. gonorreae SS 27): 0.8 mg/L (≈ 1.01 µM)
- MIC (N. meningitidis SS 04): 0.8 mg/L (≈ 1.01 µM)
- MIC (H. influentiae SS 02): 1.5 mg/L (≈ 1.9 µM)
- MIC (H. pertussis SS 03): 0.2 mg/L (≈ 0.253 µM)
- MIC (C. albicans SS 04): 200 mg/L (≈ 253 µM)
- MIC (Cl. tetani SS 17): 0.2 mg/L (≈ 0.253 µM)
- LD50 (reliability limits) (Acute toxicity; 14400 min): 3000 mg·kg
- ED50 (reliability limits) (Staph. aureus SS 07): 2.10 (2.49-1.92) mg/kg
- ED50 (reliability limits) (D. pneumoniae SS 23 [4]): 110.90 (135.28-90.92) mg/kg
- histological appearance of non obstructed bronchi [5]: presence of bronchi having almost normal appearance
- histological appearance of obstructed bronchial tract [5]: fully like that of the control animals

Structure (SMILES): CCC(=O)O[C@H]1[C@H](O[C@@H]2[C@@H](C)[C@H](O[C@H]3C[C@@](C)(OC)[C@@H](O)[C@H](C)O3)[C@@H](C)C(=O)O[C@H](CC)[C@@](C)(O)[C@H](O)[C@@H](C)C(=O)[C@H](C)C[C@@]2(C)O)O[C@H](C)C[C@@H]1N(C)C [RV11, erythromycin-monopropionate-alpha-mercaptosuccinate]
- MIC (Staph. albus SS 03): 0.05 mg/L (≈ 0.0633 µM)
- MIC (Staph. albus SS 04): 0.05 mg/L (≈ 0.0633 µM)
- MIC (Staph. aureus SS 08): 0.025 mg/L (≈ 0.0316 µM)
- MIC (Staph. aureus SS 09): 0.1 mg/L (≈ 0.127 µM)
- MIC (Staph. aureus SS 10): 0.025 mg/L (≈ 0.0316 µM)
- MIC [1]: 1.5 mg/L (≈ 1.9 µM)
- MIC [2]: 1.5 mg/L (≈ 1.9 µM)
- MIC (Strept. faecalis SS 19): 0.05 mg/L (≈ 0.0633 µM)
- MIC (S. lutea ATCC 9341): 0.01 mg/L (≈ 0.0127 µM)
- MIC (B. subtilis SS 127): 0.05 mg/L (≈ 0.0633 µM)
- MIC (B. cereus ATCC 11778): 0.8 mg/L (≈ 1.01 µM)
- MIC (B. anthranis SS 08): 0.8 mg/L (≈ 1.01 µM)
- MIC (Br. melitensis SS 19): 3 mg/L (≈ 3.8 µM)
- MIC (Br. abortus SS 7): 6 mg/L (≈ 7.59 µM)
- MIC (Citrobacter SS 05): > 200 mg/L
- MIC (Citrobacter SS 09): > 200 mg/L
- MIC (S. infantis SS 08): 100 mg/L (≈ 127 µM)
- MIC (S. heidelberg SS 18): 100 mg/L (≈ 127 µM)
- MIC (E. cloacae SS 07): > 200 mg/L
- MIC (E. aerogenes SS 011): 100 mg/L (≈ 127 µM)
- MIC (Ps. aeruginosa SS 10): 100 mg/L (≈ 127 µM)
- MIC (E. coli SS 04): 50 mg/L (≈ 63.3 µM)
- MIC (E. coli SS 05): 100 mg/L (≈ 127 µM)
- MIC (E. coli SS 06): 50 mg/L (≈ 63.3 µM)
- MIC (E. coli SS 07): 50 mg/L (≈ 63.3 µM)
- MIC (Pr. mirabilis SS 09): > 200 mg/L
- MIC (Pr. vulgaris SS 10): > 200 mg/L
- MIC (Kl. aerogenes SS 71): 100 mg/L (≈ 127 µM)
- MIC (H. tubercolosis SS 03): 50 mg/L (≈ 63.3 µM)
- MIC (Kl. pneumoniae SS 04): 200 mg/L (≈ 253 µM)
- MIC (Sr. marcescens SS 03): 200 mg/L (≈ 253 µM)
- MIC (C. diphtheriae SS 19): 0.01 mg/L (≈ 0.0127 µM)
- MIC (D. pneumoniae SS 23 [3]): 0.025 mg/L (≈ 0.0316 µM)
- MIC (N. gonorreae SS 27): 0.4 mg/L (≈ 0.506 µM)
- MIC (N. meningitidis SS 04): 1.5 mg/L (≈ 1.9 µM)
- MIC (H. influentiae SS 02): 0.8 mg/L (≈ 1.01 µM)
- MIC (H. pertussis SS 03): 0.4 mg/L (≈ 0.506 µM)
- MIC (C. albicans SS 04): 200 mg/L (≈ 253 µM)
- MIC (Cl. tetani SS 17): 0.2 mg/L (≈ 0.253 µM)
- LD50 at 240 h (Acute toxicity; os, mortality 10 days after treatment, mice, read-out: LD50 (reliability limits)): 3000 mg/kg
- ED50 (reliability limits) (Staph. aureus SS 07): 2.14 (2.40-1.91) mg/kg
- ED50 (reliability limits) (D. pneumoniae SS 23 [4]): 100.41 (122.52-82.30) mg/kg
- histological appearance of non obstructed bronchi [5]: presence of bronchi having almost normal appearance
- histological appearance of obstructed bronchial tract [5]: fully like that of the control animals
